{"source": "paper PMC9288506", "about": "“Compounds activating VCP D1 ATPase enhance both autophagic and proteasomal neurotoxic protein clearance” (Nature Communications, 2022)", "assay_in_all_cases": "biochemical", "set-up_in_all_cases": "Thermo Fisher in vitro kinase panel, per cent inhibition of kinase activity at 10 uM", "key": {"EPHB4": {"target": "EPHB4 (Homo sapiens, UniProt P54760)", "sequence (P54760 whole entry)": "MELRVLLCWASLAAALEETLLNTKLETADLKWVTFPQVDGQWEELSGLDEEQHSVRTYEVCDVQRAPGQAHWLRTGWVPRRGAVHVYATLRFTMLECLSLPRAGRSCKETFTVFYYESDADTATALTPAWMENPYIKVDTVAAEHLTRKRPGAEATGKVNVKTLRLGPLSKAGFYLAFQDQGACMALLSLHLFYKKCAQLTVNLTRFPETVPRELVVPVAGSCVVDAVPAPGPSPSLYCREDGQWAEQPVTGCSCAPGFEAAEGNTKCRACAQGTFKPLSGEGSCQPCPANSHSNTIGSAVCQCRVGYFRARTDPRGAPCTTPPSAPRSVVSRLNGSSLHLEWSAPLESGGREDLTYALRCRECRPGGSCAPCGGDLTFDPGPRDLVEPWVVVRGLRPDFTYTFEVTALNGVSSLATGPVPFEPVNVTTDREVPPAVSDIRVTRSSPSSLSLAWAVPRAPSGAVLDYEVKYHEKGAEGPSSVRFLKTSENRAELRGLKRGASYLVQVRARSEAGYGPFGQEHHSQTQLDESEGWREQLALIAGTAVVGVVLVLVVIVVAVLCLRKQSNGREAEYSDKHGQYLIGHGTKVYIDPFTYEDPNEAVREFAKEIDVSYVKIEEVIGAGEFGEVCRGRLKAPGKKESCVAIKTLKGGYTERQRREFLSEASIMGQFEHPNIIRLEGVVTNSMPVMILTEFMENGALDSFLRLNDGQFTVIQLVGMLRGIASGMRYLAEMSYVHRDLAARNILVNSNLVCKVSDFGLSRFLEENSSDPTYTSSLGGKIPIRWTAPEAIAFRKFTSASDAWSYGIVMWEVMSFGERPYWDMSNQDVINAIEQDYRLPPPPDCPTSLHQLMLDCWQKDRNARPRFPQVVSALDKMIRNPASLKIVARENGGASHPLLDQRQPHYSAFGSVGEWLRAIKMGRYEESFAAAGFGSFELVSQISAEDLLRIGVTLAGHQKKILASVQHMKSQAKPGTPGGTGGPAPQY", "experimental": "(§1) Kinase profiling of SMER28 and analogs SMER28 and analogs were tested at 10 µM in a panel of 123 kinases at ThermoFisher Scientific. Follow-up of selected kinases for SMER28 and analogs was also performed at ThermoFisher Scientific. Data are shown in Supplementary Data 2 and 3. […] An inhibition of PIK3C could induce autophagy, mediated by signaling through the AKT/mTOR axis[45]."}, "TBK1": {"target": "TBK1 (Homo sapiens, UniProt Q9UHD2)", "sequence (Q9UHD2 whole entry)": "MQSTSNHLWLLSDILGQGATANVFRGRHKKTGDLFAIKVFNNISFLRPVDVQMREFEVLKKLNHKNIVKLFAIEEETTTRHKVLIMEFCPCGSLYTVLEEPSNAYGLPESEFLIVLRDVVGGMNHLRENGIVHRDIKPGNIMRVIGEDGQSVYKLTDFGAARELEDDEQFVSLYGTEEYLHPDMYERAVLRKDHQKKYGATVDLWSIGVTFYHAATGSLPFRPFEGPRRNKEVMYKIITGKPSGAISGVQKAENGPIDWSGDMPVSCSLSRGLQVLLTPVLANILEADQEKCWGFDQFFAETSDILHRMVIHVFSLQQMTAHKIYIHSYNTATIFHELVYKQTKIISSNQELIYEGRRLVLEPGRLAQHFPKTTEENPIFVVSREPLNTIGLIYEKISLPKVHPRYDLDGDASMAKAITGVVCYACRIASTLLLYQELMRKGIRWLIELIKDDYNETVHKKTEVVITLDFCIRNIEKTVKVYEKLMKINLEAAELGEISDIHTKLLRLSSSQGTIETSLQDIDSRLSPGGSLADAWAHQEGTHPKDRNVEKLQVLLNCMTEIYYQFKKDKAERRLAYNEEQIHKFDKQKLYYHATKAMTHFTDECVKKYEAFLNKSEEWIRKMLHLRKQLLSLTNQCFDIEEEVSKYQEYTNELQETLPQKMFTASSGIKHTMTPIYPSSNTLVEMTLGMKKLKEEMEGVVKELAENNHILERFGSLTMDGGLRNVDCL", "experimental": "as §1"}, "PIM2": {"target": "PIM2 (Homo sapiens, UniProt Q9P1W9)", "sequence (Q9P1W9 whole entry)": "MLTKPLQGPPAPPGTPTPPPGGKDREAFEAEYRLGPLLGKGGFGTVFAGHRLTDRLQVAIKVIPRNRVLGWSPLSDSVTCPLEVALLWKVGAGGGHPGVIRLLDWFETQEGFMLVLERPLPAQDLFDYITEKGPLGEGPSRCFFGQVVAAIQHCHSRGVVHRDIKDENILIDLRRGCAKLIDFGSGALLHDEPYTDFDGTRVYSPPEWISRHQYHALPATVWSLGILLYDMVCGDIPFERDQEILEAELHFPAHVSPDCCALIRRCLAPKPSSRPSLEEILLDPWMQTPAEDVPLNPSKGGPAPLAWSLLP", "experimental": "as §1"}, "FRAP1 (mTOR)": {"target": "FRAP1 (mTOR) (Homo sapiens, UniProt P42345)", "experimental": "as §1"}, "RAF1 (cRAF) Y340D Y341D": {"target": "RAF1 (cRAF) Y340D Y341D (Homo sapiens, UniProt P04049, Y340D/Y341D)", "sequence (P04049 whole entry Y340D/Y341D)": "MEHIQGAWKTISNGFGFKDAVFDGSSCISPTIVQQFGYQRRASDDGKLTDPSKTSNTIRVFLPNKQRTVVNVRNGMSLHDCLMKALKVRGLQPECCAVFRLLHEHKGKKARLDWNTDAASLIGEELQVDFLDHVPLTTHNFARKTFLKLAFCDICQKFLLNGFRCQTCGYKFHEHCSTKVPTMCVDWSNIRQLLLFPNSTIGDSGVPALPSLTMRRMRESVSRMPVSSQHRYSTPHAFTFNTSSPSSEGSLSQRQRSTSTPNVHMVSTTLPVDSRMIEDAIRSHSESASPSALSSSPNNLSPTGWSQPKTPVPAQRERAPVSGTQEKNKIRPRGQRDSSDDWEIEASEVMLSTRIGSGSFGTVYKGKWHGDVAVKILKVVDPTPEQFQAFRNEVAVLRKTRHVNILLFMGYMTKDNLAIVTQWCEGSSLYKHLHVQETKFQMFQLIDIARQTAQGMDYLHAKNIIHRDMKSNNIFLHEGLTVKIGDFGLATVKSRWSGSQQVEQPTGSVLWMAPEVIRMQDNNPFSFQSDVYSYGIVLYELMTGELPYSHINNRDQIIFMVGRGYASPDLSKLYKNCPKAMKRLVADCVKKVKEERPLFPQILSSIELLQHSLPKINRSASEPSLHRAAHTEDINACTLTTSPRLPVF", "experimental": "as §1"}, "MARK2": {"target": "MARK2 (Homo sapiens, UniProt Q7KZI7)", "experimental": "as §1"}, "NEK2": {"target": "NEK2 (Homo sapiens, UniProt P51955)", "experimental": "as §1"}, "EGFR (ErbB1) T790M L858R": {"target": "EGFR (ErbB1) T790M L858R (Homo sapiens, UniProt P00533, L858R/T790M)", "experimental": "as §1"}, "FYN": {"target": "FYN (Homo sapiens, UniProt P06241)", "experimental": "as §1"}, "INSRR (IRR)": {"target": "INSRR (IRR) (Homo sapiens, UniProt P14616)", "experimental": "as §1"}, "PAK1": {"target": "PAK1 (Homo sapiens, UniProt Q13153)", "experimental": "as §1"}, "CSNK2A2 (CK2 alpha 2)": {"target": "CSNK2A2 (CK2 alpha 2) (Homo sapiens, UniProt P19784)", "sequence (P19784 whole entry)": "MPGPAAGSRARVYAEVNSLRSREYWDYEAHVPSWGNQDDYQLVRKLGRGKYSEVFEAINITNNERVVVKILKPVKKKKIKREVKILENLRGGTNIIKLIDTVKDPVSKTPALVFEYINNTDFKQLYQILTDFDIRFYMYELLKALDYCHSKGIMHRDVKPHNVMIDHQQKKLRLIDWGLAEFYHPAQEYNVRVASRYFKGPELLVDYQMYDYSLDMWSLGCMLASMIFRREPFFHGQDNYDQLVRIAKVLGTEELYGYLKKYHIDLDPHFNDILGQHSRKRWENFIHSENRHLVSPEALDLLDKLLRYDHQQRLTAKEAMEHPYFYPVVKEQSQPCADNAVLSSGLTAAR", "experimental": "as §1"}, "AMPK A2/B1/G1": {"target": "T1, AMPK A2/B1/G1 (Homo sapiens, UniProt P54646)", "T1 construct": "gene PRKAA2", "experimental": "as §1"}, "LYN A": {"target": "T2, LYN A (Homo sapiens, UniProt P07948)", "T2 construct": "isoform A", "experimental": "as §1"}, "BTK": {"target": "BTK (Homo sapiens, UniProt Q06187)", "experimental": "as §1"}, "IRAK4": {"target": "IRAK4 (Homo sapiens, UniProt Q9NWZ3)", "experimental": "as §1"}, "[1]": {"target": "MAP3K7/MAP3K7IP1 (TAK1-TAB1) (Homo sapiens, UniProt O43318)", "experimental": "as §1"}, "MST1R (RON)": {"target": "MST1R (RON) (Homo sapiens, UniProt Q04912)", "experimental": "as §1"}, "PLK1": {"target": "PLK1 (Homo sapiens, UniProt P53350)", "experimental": "as §1"}, "MYLK (MLCK)": {"target": "MYLK (MLCK) (Homo sapiens, UniProt Q15746)", "sequence (Q15746 whole entry)": "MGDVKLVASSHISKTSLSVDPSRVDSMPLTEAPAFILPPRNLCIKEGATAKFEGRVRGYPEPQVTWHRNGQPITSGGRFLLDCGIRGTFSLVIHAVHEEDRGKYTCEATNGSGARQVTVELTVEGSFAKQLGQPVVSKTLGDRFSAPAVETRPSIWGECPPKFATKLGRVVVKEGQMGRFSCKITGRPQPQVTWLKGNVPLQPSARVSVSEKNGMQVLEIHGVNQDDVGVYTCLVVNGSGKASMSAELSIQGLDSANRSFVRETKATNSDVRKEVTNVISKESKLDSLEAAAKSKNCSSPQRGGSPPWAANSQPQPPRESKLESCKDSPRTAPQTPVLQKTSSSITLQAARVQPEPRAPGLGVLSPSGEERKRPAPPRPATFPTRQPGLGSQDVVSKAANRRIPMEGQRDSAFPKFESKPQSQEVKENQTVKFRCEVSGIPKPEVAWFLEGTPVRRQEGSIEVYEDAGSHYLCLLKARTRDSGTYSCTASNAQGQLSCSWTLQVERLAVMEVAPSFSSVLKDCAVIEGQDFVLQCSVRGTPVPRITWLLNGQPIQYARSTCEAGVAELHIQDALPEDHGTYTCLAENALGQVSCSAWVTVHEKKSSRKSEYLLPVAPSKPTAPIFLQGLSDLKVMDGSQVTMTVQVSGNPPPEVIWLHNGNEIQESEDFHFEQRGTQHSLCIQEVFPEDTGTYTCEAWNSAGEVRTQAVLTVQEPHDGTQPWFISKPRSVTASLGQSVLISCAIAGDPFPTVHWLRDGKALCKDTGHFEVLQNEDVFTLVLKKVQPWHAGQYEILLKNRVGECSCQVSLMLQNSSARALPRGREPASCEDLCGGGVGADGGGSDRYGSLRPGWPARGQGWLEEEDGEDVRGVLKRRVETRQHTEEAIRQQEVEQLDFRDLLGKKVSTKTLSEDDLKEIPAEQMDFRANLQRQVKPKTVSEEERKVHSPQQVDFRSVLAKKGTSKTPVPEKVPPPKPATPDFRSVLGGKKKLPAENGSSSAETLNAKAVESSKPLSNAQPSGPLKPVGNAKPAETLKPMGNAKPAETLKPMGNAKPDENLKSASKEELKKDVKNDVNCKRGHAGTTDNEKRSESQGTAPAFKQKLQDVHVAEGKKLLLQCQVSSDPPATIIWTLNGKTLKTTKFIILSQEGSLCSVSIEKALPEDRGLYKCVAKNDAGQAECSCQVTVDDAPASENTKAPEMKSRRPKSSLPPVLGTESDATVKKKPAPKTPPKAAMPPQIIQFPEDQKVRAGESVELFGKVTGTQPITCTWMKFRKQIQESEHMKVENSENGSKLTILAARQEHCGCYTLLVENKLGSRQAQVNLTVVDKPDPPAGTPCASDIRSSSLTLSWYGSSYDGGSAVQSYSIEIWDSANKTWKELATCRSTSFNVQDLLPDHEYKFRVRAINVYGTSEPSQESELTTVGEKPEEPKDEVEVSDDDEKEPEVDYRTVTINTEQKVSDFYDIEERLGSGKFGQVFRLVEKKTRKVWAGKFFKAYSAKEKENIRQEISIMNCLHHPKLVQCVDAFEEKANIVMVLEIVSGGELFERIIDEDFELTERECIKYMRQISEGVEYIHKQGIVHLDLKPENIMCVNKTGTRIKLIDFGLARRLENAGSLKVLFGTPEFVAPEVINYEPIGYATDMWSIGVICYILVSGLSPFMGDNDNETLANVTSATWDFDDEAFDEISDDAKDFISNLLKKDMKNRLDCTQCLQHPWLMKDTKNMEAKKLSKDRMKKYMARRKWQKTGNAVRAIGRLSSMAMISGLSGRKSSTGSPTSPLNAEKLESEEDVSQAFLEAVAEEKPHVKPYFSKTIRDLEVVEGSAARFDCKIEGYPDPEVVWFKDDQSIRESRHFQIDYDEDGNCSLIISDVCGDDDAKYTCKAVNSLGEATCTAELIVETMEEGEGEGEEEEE", "experimental": "as §1"}, "INSR": {"target": "INSR (Homo sapiens, UniProt P06213)", "experimental": "as §1"}, "KIT": {"target": "KIT (Homo sapiens, UniProt P10721)", "experimental": "as §1"}, "ABL2 (Arg)": {"target": "ABL2 (Arg) (Homo sapiens, UniProt P42684)", "experimental": "as §1"}, "PIK3C2A (PI3K-C2 alpha)": {"target": "PIK3C2A (PI3K-C2 alpha) (Homo sapiens, UniProt O00443)", "experimental": "as §1"}, "ERBB2 (HER2)": {"target": "ERBB2 (HER2) (Homo sapiens, UniProt P04626)", "experimental": "as §1"}}, "data": [{"smiles": "C=CCNc1ncnc2ccc(Br)cc12", "note": "[SMER28]", "values": [{"measurement": "inhibition at 10 µM", "setting": "EPHB4", "result": -1, "unit": "%"}, {"measurement": "inhibition at 10 µM", "setting": "TBK1", "result": 4, "unit": "%"}, {"measurement": "inhibition at 10 µM", "setting": "PIM2", "result": -15, "unit": "%"}, {"measurement": "inhibition at 10 µM", "setting": "FRAP1 (mTOR)", "result": -7, "unit": "%"}, {"measurement": "inhibition at 10 µM", "setting": "RAF1 (cRAF) Y340D Y341D", "result": 13, "unit": "%"}, {"measurement": "inhibition at 10 µM", "setting": "MARK2", "result": 9, "unit": "%"}, {"measurement": "inhibition at 10 µM", "setting": "NEK2", "result": -1, "unit": "%"}, {"measurement": "inhibition at 10 µM", "setting": "EGFR (ErbB1) T790M L858R", "result": 15, "unit": "%"}, {"measurement": "inhibition at 10 µM", "setting": "FYN", "result": 9, "unit": "%"}, {"measurement": "inhibition at 10 µM", "setting": "INSRR (IRR)", "result": 5, "unit": "%"}, {"measurement": "inhibition at 10 µM", "setting": "PAK1", "result": 0, "unit": "%"}, {"measurement": "inhibition at 10 µM", "setting": "CSNK2A2 (CK2 alpha 2)", "result": 10, "unit": "%"}, {"measurement": "inhibition at 10 µM", "setting": "AMPK A2/B1/G1", "result": 12, "unit": "%"}, {"measurement": "inhibition at 10 µM", "setting": "LYN A", "result": 20, "unit": "%"}, {"measurement": "inhibition at 10 µM", "setting": "BTK", "result": 8, "unit": "%"}, {"measurement": "inhibition at 10 µM", "setting": "IRAK4", "result": 68, "unit": "%"}, {"measurement": "inhibition at 10 µM", "setting": "[1]", "result": 34, "unit": "%"}, {"measurement": "inhibition at 10 µM", "setting": "MST1R (RON)", "result": -4, "unit": "%"}, {"measurement": "inhibition at 10 µM", "setting": "PLK1", "result": 11, "unit": "%"}, {"measurement": "inhibition at 10 µM", "setting": "MYLK (MLCK)", "result": 12, "unit": "%"}, {"measurement": "inhibition at 10 µM", "setting": "INSR", "result": -1, "unit": "%"}, {"measurement": "inhibition at 10 µM", "setting": "KIT", "result": 25, "unit": "%"}, {"measurement": "inhibition at 10 µM", "setting": "ABL2 (Arg)", "result": 3, "unit": "%"}, {"measurement": "inhibition at 10 µM", "setting": "PIK3C2A (PI3K-C2 alpha)", "result": 22, "unit": "%"}, {"measurement": "inhibition at 10 µM", "setting": "ERBB2 (HER2)", "result": -1, "unit": "%"}]}]}
